Tests used:
[1] = biological target: T1, Amine oxidase [flavin-containing] A (Homo sapiens, UniProt P21397); assay: (§1) SSAO Activity Assay: Amine oxidase activity of recombinant hSSAO, hMAO-A, and hMAO-B isoforms are measured using the MAO-Glo assay kit (Promega, V1402). Ten nL test compounds (with DMSO as vehicle, 0.1% v/v for hSSAO, hMAO-A and hMAO-B) were added into assay plates by Echo, and pre-incubated with 5 μL of enzyme for 30 mins at room temperature before the addition of 5 μL of luminogenic substrate. The substrate concentration is 40 μM for human recombinant SSAO, 40 μM for human recombinant MAO-A, and 4 μM for human recombinant MAO-B. The hSSAO and hMAO-A assays were conducted in the MAO-A reaction buffer in the kit, and the MAO-B assay was conducted in the MAO-B reaction buffer. Oxidation of the substrate was conducted for 1 hr, before the addition of detecting reagent according the manufacture's protocol. The IC50 value of the tested compounds was calculated by fitting the dose response curve using a 4-parameter non-linear regression routine.
T1 sequence (P21397 whole entry): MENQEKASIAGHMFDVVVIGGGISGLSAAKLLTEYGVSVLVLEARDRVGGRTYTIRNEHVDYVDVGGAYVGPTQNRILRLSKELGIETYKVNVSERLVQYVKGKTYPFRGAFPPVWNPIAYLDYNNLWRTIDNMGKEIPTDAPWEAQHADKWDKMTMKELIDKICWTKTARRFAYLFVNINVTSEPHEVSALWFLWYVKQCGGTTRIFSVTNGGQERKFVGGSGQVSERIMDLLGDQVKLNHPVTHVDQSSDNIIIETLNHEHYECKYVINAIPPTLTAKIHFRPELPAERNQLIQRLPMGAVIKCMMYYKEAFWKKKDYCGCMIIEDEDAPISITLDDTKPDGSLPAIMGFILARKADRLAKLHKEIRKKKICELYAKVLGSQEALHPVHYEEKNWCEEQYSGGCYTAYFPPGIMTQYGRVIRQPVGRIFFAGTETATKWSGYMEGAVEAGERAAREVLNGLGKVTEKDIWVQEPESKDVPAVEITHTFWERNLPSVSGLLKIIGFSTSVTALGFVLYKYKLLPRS

[2] = biological target: T2, Amine oxidase [flavin-containing] B (Homo sapiens, UniProt P27338); assay: as §1
T2 sequence (P27338 whole entry): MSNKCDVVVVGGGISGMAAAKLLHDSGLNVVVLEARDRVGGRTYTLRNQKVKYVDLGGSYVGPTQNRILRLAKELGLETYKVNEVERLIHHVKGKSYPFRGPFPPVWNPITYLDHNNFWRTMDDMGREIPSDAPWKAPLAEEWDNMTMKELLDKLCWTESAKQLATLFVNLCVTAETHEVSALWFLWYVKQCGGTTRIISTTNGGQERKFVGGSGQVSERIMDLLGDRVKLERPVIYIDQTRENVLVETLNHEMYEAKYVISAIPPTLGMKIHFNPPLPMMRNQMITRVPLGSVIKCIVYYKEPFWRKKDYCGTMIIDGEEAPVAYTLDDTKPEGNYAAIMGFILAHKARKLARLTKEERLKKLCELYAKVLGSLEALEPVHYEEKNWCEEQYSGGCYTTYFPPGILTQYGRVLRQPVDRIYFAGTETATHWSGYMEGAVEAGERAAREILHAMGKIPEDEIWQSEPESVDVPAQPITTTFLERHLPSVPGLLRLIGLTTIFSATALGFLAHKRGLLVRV

An IC50 [1] greater than 30 µM and an IC50 [2] of less than 10 µM were found for C[C@@H](CN1CCC2(CCCC2)C1=O)CS(=O)(=O)c1ccc(OC/C(=C/F)CN)cc1 in this work.

An IC50 [1] greater than 30 µM and an IC50 [2] greater than 30 µM were found for NC/C(=C\F)COc1ccc(S(=O)(=O)CC23CCC(C(=O)O)(CC2)CC3)cc1 in this work.

An IC50 [1] greater than 30 µM and an IC50 [2] of less than 10 µM were found for C[C@@H](CS(=O)(=O)c1ccc(OC/C(=C/F)CN)cc1)N1CCCCC1=O in this work.

An IC50 [1] greater than 30 µM and an IC50 [2] greater than 30 µM were found for CC(C)N1CCN(CS(=O)(=O)c2ccc(OC/C(=C/F)CN)cc2)C(=O)C1 in this work.

An IC50 [1] greater than 30 µM and an IC50 [2] greater than 30 µM were found for NC/C(=C\F)COc1ccc(S(=O)(=O)CN2CCCC2=O)cc1 in this work.

An IC50 [1] greater than 30 µM and an IC50 [2] of less than 10 µM were found for NC/C(=C/F)COc1ccc(S(=O)(=O)CC23CCC(NC(=O)C4CC4)(CC2)CC3)cc1 in this work.

An IC50 [1] greater than 30 µM and an IC50 [2] greater than 30 µM were found for CC(C)(CN1CCOCC1)CS(=O)(=O)c1ccc(OC/C(=C/F)CN)cc1 in this work.

An IC50 [1] greater than 30 µM and an IC50 [2] of less than 10 µM were found for NC/C(=C\F)COc1ccc(S(=O)(=O)Cn2ccccc2=O)cc1 in this work.

An IC50 [1] greater than 30 µM and an IC50 [2] greater than 30 µM were found for C[C@H](CN1CCOCC1)CS(=O)(=O)c1ccc(OC/C(=C/F)CN)cc1 in this work.

An IC50 [1] greater than 30 µM and an IC50 [2] greater than 30 µM were found for NC/C(=C\F)COc1ccc(S(=O)(=O)CC2(CN3CCCCC3=O)CC2)cc1 in this work.

An IC50 [1] greater than 30 µM and an IC50 [2] greater than 30 µM were found for C[C@@H](CN1CCOCC1)CS(=O)(=O)c1ccc(OC/C(=C/F)CN)cc1 in this work.

An IC50 [1] greater than 30 µM and an IC50 [2] of less than 10 µM were found for NC/C(=C\F)COc1ccc(S(=O)(=O)CC23CC(C(=O)NC4CCC4)(C2)C3)cc1 in this work.

An IC50 [1] greater than 30 µM and an IC50 [2] of less than 10 µM were found for NC/C(=C\F)COc1ccc(S(=O)(=O)CC23CCC(C(=O)NC4CCC4)(CC2)C3)cc1 in this work.

An IC50 [1] greater than 30 µM and an IC50 [2] of less than 10 µM were found for C[C@H](CN1CCC2(CCCC2)C1=O)CS(=O)(=O)c1ccc(OC/C(=C/F)CN)cc1 in this work.

Source: ChEMBL document CHEMBL5729376, “SSAO inhibitors and use thereof” (2022)
